The record followed here is PubChem BioAssay (NCI).

What is called TGI is the concentration giving total growth inhibition. By GI50 is commonly meant the concentration giving 50% growth inhibition.

Test systems include LOX IMVI melanoma; M14 melanoma; SK-MEL-28 melanoma; SW-620 colon; MDA-MB-231 breast; UACC-257 melanoma; RXF 393 renal; RPMI-8226 leukemia; SF-539 CNS; COLO 205 colon.
Assay in all cases: DTP human tumour cell line panel, 48 h

Values joined by “and” are separate entries in the source; they are usually repeats but may differ in a detail not shown here. Equal values may be shown once.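 Step 1: Grow cells in 96-well plates. Step 2: Expose to compound for 48 hours at 5 concentrations. Step 3: Interpolate endpoints linearly; if unreached, use highest concentration. The concentration for 50% growth inhibition is given as GI50. TGI marks complete inhibition of growth.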

In the case of `Cc1ccc(S(=O)(=O)CC2(Br)CCc3ccccc3C2=O)cc1` (stereo not given), the TGI with LOX IMVI melanoma was greater than 100 µM; with M14 melanoma, greater than 100 µM; with SK-MEL-28 melanoma it was 38.5 µM; with SW-620 colon it was greater than 100 µM; with MDA-MB-231 breast, 84.9 µM; with UACC-257 melanoma, 44.1 µM. Also, the TGI in the assay with RXF 393 renal was 39 µM; in the assay with RPMI-8226 leukemia it was greater than 100 µM; with SF-539 CNS it was greater than 100 µM; in the assay on COLO 205 colon it was 43.6 µM.
As for `CS(=O)(=O)N1CCc2c(-c3cnc(N)nc3)nc(N3CCOCC3)nc21`, the GI50 with LOX IMVI melanoma is 0.579 µM and 0.406 µM; in the assay with M14 melanoma it was 1.43 µM and 0.625 µM; with SK-MEL-28 melanoma it was 0.646 µM and 0.695 µM; in the assay with SW-620 colon, 1.54 µM and 1.29 µM; in the assay with MDA-MB-231 breast it was 1.29 µM and 1.26 µM; with UACC-257 melanoma, 0.809 µM and 0.446 µM. Further, the GI50 in the assay on RXF 393 renal is 0.605 µM and 0.421 µM; in the assay on RPMI-8226 leukemia, 1.52 µM and 2.5 µM; in the assay on SF-539 CNS it was 0.835 µM and 0.878 µM; with COLO 205 colon it was 0.444 µM and 0.516 µM. In addition, the TGI is greater than 94.2 µM in the assay with LOX IMVI melanoma; greater than 41 µM in the assay with M14 melanoma; 8.18 µM and 13.1 µM in the assay on SK-MEL-28 melanoma; greater than 100 µM in the assay with SW-620 colon; > 10 µM and 23.4 µM in the assay with MDA-MB-231 breast; 6.85 µM and 3.8 µM in the assay on UACC-257 melanoma. The TGI with RXF 393 renal was 4.04 µM and 3.27 µM; in the assay on RPMI-8226 leukemia it was greater than 100 µM; in the assay on SF-539 CNS it was 4.13 µM and 3.89 µM; with COLO 205 colon it was > 10 µM and 13 µM.
Consider `O=C1/C(=C/c2ccccc2[N+](=O)[O-])COc2ccc(O)c(O)c21`, for which the GI50 in the assay on LOX IMVI melanoma was 0.307 µM; in the assay on M14 melanoma, 0.797 µM; in the assay with SK-MEL-28 melanoma, 1.33 µM; in the assay with SW-620 colon, 0.353 µM; with MDA-MB-231 breast, 0.799 µM; in the assay with UACC-257 melanoma it was 1.42 µM. The GI50 with RXF 393 renal is 0.357 µM; in the assay on RPMI-8226 leukemia, 0.421 µM; in the assay with SF-539 CNS it was 1.21 µM; with COLO 205 colon, 0.71 µM. Also, the TGI is 1.3 µM with LOX IMVI melanoma; 2.89 µM in the assay on M14 melanoma; 2.97 µM in the assay on SK-MEL-28 melanoma; 1.44 µM in the assay with SW-620 colon; 2.68 µM in the assay with MDA-MB-231 breast; 4.06 µM with UACC-257 melanoma. In addition, the TGI is 1.46 µM in the assay with RXF 393 renal, greater than 41.3 µM in the assay on RPMI-8226 leukemia, 2.99 µM with SF-539 CNS and 2.57 µM in the assay on COLO 205 colon.
In the case of `CCN1C(=O)N(CC)C2C1NN=c1s/c(=C\c3ccc(OC)cc3)c(=O)n12` (stereo not given), the GI50 in the assay on LOX IMVI melanoma is 0.233 µM; with M14 melanoma, 0.172 µM; with SK-MEL-28 melanoma it was 0.953 µM; with SW-620 colon it was 0.136 µM; in the assay on MDA-MB-231 breast, 0.353 µM; in the assay with UACC-257 melanoma, greater than 100 µM. Also, the GI50 is 0.0789 µM with RXF 393 renal, 0.353 µM in the assay on RPMI-8226 leukemia, 0.103 µM with SF-539 CNS and 0.192 µM with COLO 205 colon. The TGI is greater than 100 µM in the assay on LOX IMVI melanoma; greater than 100 µM with M14 melanoma; greater than 100 µM in the assay on SK-MEL-28 melanoma; greater than 100 µM in the assay on SW-620 colon; greater than 39 µM in the assay with MDA-MB-231 breast; greater than 100 µM with UACC-257 melanoma. The concentration for total growth inhibition (TGI) is 47 µM with RXF 393 renal, greater than 100 µM in the assay on RPMI-8226 leukemia, 0.545 µM in the assay with SF-539 CNS and 0.616 µM with COLO 205 colon.
As to `O=C1NC(=O)C(c2c[nH]c3ccccc23)=C1c1ccccc1`, the GI50 was 23.3 µM with LOX IMVI melanoma; greater than 25 µM in the assay with M14 melanoma; greater than 25 µM with SK-MEL-28 melanoma; greater than 25 µM in the assay with SW-620 colon; greater than 25 µM in the assay on MDA-MB-231 breast; greater than 25 µM in the assay with UACC-257 melanoma. Further, the GI50 in the assay with RXF 393 renal, in the assay on RPMI-8226 leukemia, with SF-539 CNS and in the assay on COLO 205 colon was greater than 25 µM throughout. In addition, the TGI in the assay on LOX IMVI melanoma, in the assay with M14 melanoma, with SK-MEL-28 melanoma, in the assay on SW-620 colon, with MDA-MB-231 breast and in the assay with UACC-257 melanoma was greater than 25 µM each time. The TGI in the assay with RXF 393 renal, with RPMI-8226 leukemia, with SF-539 CNS and with COLO 205 colon was greater than 25 µM throughout.
For `Cc1c(O)c(Br)c(C)c(O)c1Br` (tested in a mixture with another compound), the concentration for total growth inhibition (TGI) in the assay with LOX IMVI melanoma came to 3.44 µM; in the assay on M14 melanoma it was 3.1 µM; in the assay with SK-MEL-28 melanoma it was 3.56 µM; with SW-620 colon, 6.83 µM; in the assay with MDA-MB-231 breast, 25.5 µM; in the assay with UACC-257 melanoma, 3.02 µM. Also, the TGI came to 3.33 µM in the assay on RXF 393 renal, 6.06 µM in the assay on RPMI-8226 leukemia, 10 µM in the assay with SF-539 CNS and 3.6 µM with COLO 205 colon.
Regarding `O=C(/C=C/c1ccccc1)OCC1=C[C@@H](O)[C@@H]2C=CO[C@@H](OC3OC(CO)C(O)C(O)C3O)[C@H]12` (stereo not given in full), the TGI in the assay with LOX IMVI melanoma, in the assay with M14 melanoma, with SK-MEL-28 melanoma, in the assay with SW-620 colon, in the assay with MDA-MB-231 breast and with UACC-257 melanoma was greater than 100 µM throughout. Also, the TGI in the assay on RXF 393 renal, in the assay on RPMI-8226 leukemia, in the assay on SF-539 CNS and in the assay on COLO 205 colon was greater than 100 µM in each case.
Consider `Oc1cccc(-c2nc(-c3ccccc3)[nH]c2-c2ccncc2)c1`, for which the GI50 in the assay with LOX IMVI melanoma is 8.82 µM; in the assay with M14 melanoma, 1.71 µM; with SK-MEL-28 melanoma, 2.03 µM; in the assay on SW-620 colon, 9.39 µM; in the assay on MDA-MB-231 breast it was 9.59 µM; with UACC-257 melanoma, 2.97 µM. For the same compound, the GI50 in the assay with RXF 393 renal is 5 µM; in the assay on RPMI-8226 leukemia, 13.5 µM; in the assay on SF-539 CNS, 17.6 µM; in the assay on COLO 205 colon, 4.88 µM. The TGI with LOX IMVI melanoma was greater than 25 µM; in the assay on M14 melanoma it was 12.6 µM; with SK-MEL-28 melanoma it was greater than 18.5 µM; with SW-620 colon, greater than 23.4 µM; in the assay on MDA-MB-231 breast, greater than 25 µM; in the assay on UACC-257 melanoma it was 14 µM. Besides, the TGI in the assay with RXF 393 renal was 14.7 µM; with RPMI-8226 leukemia, greater than 25 µM; in the assay on SF-539 CNS it was greater than 25 µM; in the assay with COLO 205 colon it was 12.2 µM.
As for `CCCc1n(Cc2ccc3ccccc3n2)cc[n+]1Cc1ccc2ccccc2n1`, the GI50 in the assay on LOX IMVI melanoma is 2.43 µM; with M14 melanoma it was 2.29 µM; with SK-MEL-28 melanoma, 1.52 µM; in the assay on SW-620 colon, 3.63 µM; in the assay on MDA-MB-231 breast, 2.11 µM; with UACC-257 melanoma, 0.778 µM. For the same compound, the GI50 is 9.08 µM with RXF 393 renal, 0.362 µM with RPMI-8226 leukemia, 2.14 µM with SF-539 CNS and 0.633 µM in the assay on COLO 205 colon. Besides, the TGI in the assay with LOX IMVI melanoma was found to be 10.9 µM; with M14 melanoma it was 13.5 µM; with SK-MEL-28 melanoma it was 15.8 µM; with SW-620 colon, 25 µM; with MDA-MB-231 breast, 8.47 µM; in the assay on UACC-257 melanoma, 4.84 µM. Besides, the TGI with RXF 393 renal turned out to be 35.4 µM; in the assay with RPMI-8226 leukemia, 7.41 µM; in the assay with SF-539 CNS, 13.4 µM; in the assay on COLO 205 colon, 2.21 µM.
For `CNCCNc1nc2ccccc2c2c(=O)c3cccc(C)c3sc12`, the GI50 with LOX IMVI melanoma was 0.791 µM; with M14 melanoma, 0.853 µM; in the assay on SK-MEL-28 melanoma it was 4.08 µM; in the assay with SW-620 colon it was 0.915 µM; in the assay with MDA-MB-231 breast it was 1.02 µM; with UACC-257 melanoma, 0.944 µM. Moreover, the GI50 in the assay on RXF 393 renal is 3.08 µM; in the assay on RPMI-8226 leukemia, 1.16 µM; in the assay with SF-539 CNS, 6.42 µM; in the assay on COLO 205 colon, 0.921 µM. Moreover, the TGI in the assay with LOX IMVI melanoma came to 1.49 µM; in the assay with M14 melanoma, 1.7 µM; with SK-MEL-28 melanoma, 10.5 µM; in the assay with SW-620 colon it was 1.92 µM; in the assay with MDA-MB-231 breast it was 3.61 µM; in the assay with UACC-257 melanoma it was 1.95 µM. The TGI in the assay with RXF 393 renal turned out to be 9.72 µM; in the assay with RPMI-8226 leukemia it was 2.96 µM; with SF-539 CNS it was 12.8 µM; in the assay on COLO 205 colon, 1.92 µM.
With `N[C@@H](CSSC[C@H](N)C(=O)N1CCn2cc(-c3ccccc3)nc2[C@@H]1CC1CCCCC1)C(=O)N1CCn2cc(-c3ccccc3)nc2[C@@H]1CC1CCCCC1`, the GI50 in the assay on LOX IMVI melanoma was 1.34 µM; in the assay with M14 melanoma, 0.301 µM; with SK-MEL-28 melanoma, 0.529 µM; in the assay on SW-620 colon, 1.24 µM; in the assay with MDA-MB-231 breast, 1.74 µM; in the assay with UACC-257 melanoma, 1.4 µM. Also, the GI50 was 1.63 µM in the assay on RXF 393 renal, 2.35 µM in the assay with RPMI-8226 leukemia, 1.75 µM in the assay with SF-539 CNS and 1.79 µM in the assay with COLO 205 colon. In addition, the TGI in the assay with LOX IMVI melanoma is 2.99 µM; in the assay with M14 melanoma, 1.23 µM; in the assay on SK-MEL-28 melanoma, 1.96 µM; in the assay with SW-620 colon, 3.36 µM; in the assay on MDA-MB-231 breast it was 3.68 µM; in the assay with UACC-257 melanoma, 3.32 µM. For the same compound, the TGI amounted to 3.1 µM in the assay with RXF 393 renal, 5.68 µM in the assay on RPMI-8226 leukemia, 3.55 µM with SF-539 CNS and 3.27 µM in the assay with COLO 205 colon.
Turning to `Cn1cc(C2=C(c3c(S(C)=O)n(C)c4ccccc34)C(=O)NC2=O)c2ccccc21` (stereo not given), the GI50 in the assay on LOX IMVI melanoma was 13.7 µM; in the assay with M14 melanoma, 7.56 µM; in the assay on SK-MEL-28 melanoma it was 19.1 µM; in the assay on SW-620 colon it was 7.78 µM; in the assay on MDA-MB-231 breast it was 12.9 µM; in the assay with UACC-257 melanoma it was greater than 25 µM. Besides, the GI50 with RXF 393 renal is 5.42 µM; in the assay on RPMI-8226 leukemia, 12.7 µM; in the assay with SF-539 CNS it was 6.35 µM; in the assay on COLO 205 colon, 5.96 µM. In addition, the TGI in the assay with LOX IMVI melanoma, with M14 melanoma, in the assay with SK-MEL-28 melanoma, in the assay on SW-620 colon, with MDA-MB-231 breast and in the assay on UACC-257 melanoma was greater than 25 µM in each case. In addition, the TGI in the assay on RXF 393 renal was greater than 20.7 µM; with RPMI-8226 leukemia it was greater than 25 µM; with SF-539 CNS, greater than 20.1 µM; in the assay with COLO 205 colon, greater than 18.6 µM.
